Results taken from US11136561B2, “Polypeptide for the enzymatic detoxification of zearalenone, isolated polynucleotide, and associated additive, use and method” (priority 2014, dated 2021).

Experiments:
mammals = details: cited from earlier work
pigs = details: cited from earlier work
[1] = extrusion and oxidants, e.g. 16 hours at 80° C. with 10% hydrogen peroxide solution; cited from earlier work
[2] = molecular target: T1, fusion protein containing the hormone-dependent activation domain of the human estrogen receptor alpha and the DNA binding domain of the yeast Gal4 protein (Homo sapiens, UniProt P03372); format: cell-based; details: for Concentration necessary to express 7.5 relative units of beta-galactosidase: GAL7-lacZ reporter, 18 hours at 30° C.
T1 construct: expressed in transfected cells; host or cells: Saccharomyces cerevisiae YZHB817 (PJ69-4a derivative, pdr5 snq2) carrying expression vector pTK103
T1 sequence (P03372 311-595 limits assumed): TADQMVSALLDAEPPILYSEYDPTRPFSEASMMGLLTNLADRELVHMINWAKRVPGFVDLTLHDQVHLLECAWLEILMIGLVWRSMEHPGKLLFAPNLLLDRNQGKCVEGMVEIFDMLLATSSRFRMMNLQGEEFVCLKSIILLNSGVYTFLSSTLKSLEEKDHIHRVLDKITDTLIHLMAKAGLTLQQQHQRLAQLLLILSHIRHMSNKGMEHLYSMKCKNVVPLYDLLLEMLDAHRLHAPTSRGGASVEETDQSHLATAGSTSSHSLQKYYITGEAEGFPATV
From the text: The purified metabolite iZOM as described in Example 2 was used to determine its toxicity, expressed by its estrogenic activity, and compared to that of zearalenone.
For measuring the estrogenic activity, a specially prepared reporter yeast strain, YZHB817 (Bachmann, H.: Phenotypic detection of zearalenone in Saccharomyces cerevisiae. Master thesis BOKU Vienna, 2003) was used. This strain is derived from yeast-two hybrid strain PJ69-4a (MATa trp1-901 leu2-3,112 ura3-52 his3-200 gal4-(deleted) gal80(deleted) LYS2::GAL1-HIS3 GAL2-ADE2 met2::GAL7-lacZ) (James et al. 1996, Genetics; 144(4), 1425-1436). PJ69-4a was further developed by the disruption of the ABC transporters PDR5 and SNQ2. […] This strain was subsequently transformed with an expression vector (pTK103) that triggers the production of a fusion protein containing the hormone-dependent activation domain of the human estrogen receptor alpha and the DNA binding domain of the yeast Gal4 protein, in order to obtain the strain YZHB817.
In the presence of estrogenic substances, the yeast strain YZHB817 induces the expression of the GAL7 lacZ reporter gene, whose product, the enzyme beta-galactosidase, is easy to measure by the hydrolyzation of the chromogenic substrate ONPG (ortho-nitrophenyl-beta-galactoside) at 420 nm (Current Protocols in Molecular Biology, Chapter 13, Yeast (Eds. Lundblad V, Struhl, K.)).
[…] of the estrogenic test solution (ZEN or iZOM) were dissolved in 50% ethanol, mixed with 1.9 ml of the yeast culture of strain […] in SC-TRP medium at a cell density of OD600=0.1, and incubated for 18 hours at 30° C. and 180 rpm. After this, the OD600 of the culture was determined, and the cell pellet (10 min, 13 krpm) of 1 ml was resuspended in […] Z buffer and permeabilized with 25 μl chloroform. […] The supernatant was measured at 420 nm, and the relative units (based on the used cell amount) were calculated as: RU=(OD420×1000)/(OD600×incubation time in min)

bovine = details: cited from earlier work
[3] = cited from earlier work
[4] = cited from earlier work; remark: listed apart in the source
[5] = test system: polypeptide of SEQ ID No. 1; experiment: Metabolization of ZEN by yeast strain YZGA515 expressing the polypeptide of SEQ ID No. 1 (test setup), HPLC-MS; format: cell-based, Saccharomyces cerevisiae; details: expressed in yeast strain YZGA515
From the text: The yeast strain YZGA515 (Saccharomyces cerevisiae modified by inactivation of the ABC transporter gene PDR5 (Poppenberger et al. 2003, J. Biol. Chem., 278 (48) 47905-14) for the enhanced absorption of zearalenone (ZEN)) was transformed by the plasmid pCS57 using standard techniques. pCS57 is a plasmid derived from the yeast expression plasmid pADH-FW (Mitterbauer et. al 2002, Appl. Environ. Microbiol.; 68 (3), 1336-1346) with LEU2 as selection marker and ADH1 promoter.
In the test setup, the yeast strain YZGA515 was transformed with the pCS57 vector additionally containing the polynucleotide of SEQ ID No. 4 as BamHI-Xhol fragment after the strongly constitutive ADH1 promoter (alcohol dehydrogenase 1). This enabled the formation of the polypeptide of SEQ ID No. 1.
The yeast strain YZGA515 with the empty vector (pADH-FW without the polynucleotide of SEQ ID No.4) was transformed as negative control.
The transgenic yeasts (test setup and negative control) were cultivated in SC-LEU medium (Sherman 1991, Methods Enzymol., 194, 3-21), centrifuged and resuspended in fresh SC-LEU medium at a concentration of 2 mg/l ZEN, wherein a cell density of OD600=4 was adjusted in both cases. […]
In a further test setup, the metabolite iZOM was additionally measured quantitatively. […]

## C[C@H]1CCCC(=O)CCC/C=C/c2cc(O)cc(O)c2C(=O)O1 [ZEN, (2E,11D)-15,17-dihydroxy-11-methyl-12-oxabicyco[12.4.0]octadeca-1(18), 2,14,16-tetraene-7,13-dione]
mammals
  ZEN concentration in feeds leading to development disorders: above 0.5 ppm
pigs
  ZEN concentration in feeds that may lead to hyper-estrogenicity: above 1.5 ppm
[1]
  Reduction of ZEN content: 83.9%
[2]
  Concentration necessary to express 7.5 relative units of beta-galactosidase: approximately 45 ppb
bovine
  ZEN concentration made responsible for miscarriages: 12 ppm
[3]
  Time after oral administration at which ZEN is detectable in blood: 30 min
[4]
  oral LD50: up to 20,000 mg/kg body weight

## CC1CCCC(=O)OCCC/C=C/c2cc(O)cc(O)c2C(=O)O1 (stereo not shown) [iZOM]
[2]
  Concentration necessary to express 7.5 relative units of beta-galactosidase: about 500 ppb
[2]; toxicity expressed by estrogenic activity
  Toxicity lower by a factor (than zearalenone): about 100

B1: polypeptide of SEQ ID No. 1: monooxygenase converting the keto group in position 7 of zearalenone into an ester group (protein)
chain: MTLEAIPVPEETPAQTVPTAPLSEEEREALKHRYRAERDKRIREDGIKQYRSLEGLLDVDDTKDPYTPVKPREPLNDHVDFLFLGGGFAGLIVCSHLKKTGFNDFRIIESGGDFGGVWYWNRFPGAMCDTAAMVYLPLLEETGTVPSAKYVRGPEILAHAQRIARTFDLYPHALFHTHLESLTWDEEQGVWKVKTRQGDSFTATHVGMGTGPLNKPHLPGIPGIEKFKGKAMHTARWDFATTGGGWNGEVMEGLKDKRVGVIGTGATGIQAIPELGRDSGELFVFQRTPSAVAVRGNHPIDPEWFASLDKGWQTKWNRNFIQLMSSGMAENDYVRDGWTDGVKRITARMFAEAAKAGRDPSTLSFDDFLAAYHLSDDEYMTAVRNRTNEVVNDPKTADGLKAWYRQFCKRPCFHDEFLATFNRPTVHLVDTNGQGVTEVDETGVWANGQHYDLDIIVYATGFEFNSEWTYKSGMEVYGRDGLTLTQAWKDGMKTYHGMHINGFPNLFMLQFQQGSSLASNITSNYVDSGYTIAAILNKKKELGAKTVEVPADVQSKWIEHLLTANKGLIGGPECTPGYYNNEGQEEGLKEKLNGARYPAGSLAFFDYIAEWRTNGKFEGLAFDGKQIAVQ
modifications: Trichosporon mycotoxinivorans
notes: monooxygenase converting the keto group in position 7 of zearalenone into an ester group
[5]
  Conversion of ZEN to iZOM: able to convert ZEN to its metabolite iZOM
